# Reference: ChEMBL document CHEMBL1201862, “PubChem BioAssay data set” (2004)
# Calls of active or inactive are those of the source.
# Legend:
# [1] = target: Troponin, cardiac muscle (Homo sapiens, UniProt P19429+P45379+P63316); experiment: Fluorescence-based biochemical high throughput dose response assay for activators of the calcium sensitivity of cardiac Regulated Thin Filaments (RTF). [Related pubchem assays (depositor defined):AID493008, AID493018, AID504382, AID504383]; format: protein-complex assay
# [2] = target: T1, Serine/threonine-protein phosphatase (Homo sapiens, UniProt Q9BPW0); experiment: Counterscreen for inhibitors of PP1: fluorescence-based biochemical high throughput dose response assay to identify inhibitors of Protein Phosphatase 5 (PP5). [Related pubchem assays: 2034 (Summary (PP5 inhibitors)), 1987 (PP5 inhibitors in singlate), 2235 (PP1 inhibitors in singlate)]
# T1 sequence (Q9BPW0 whole entry): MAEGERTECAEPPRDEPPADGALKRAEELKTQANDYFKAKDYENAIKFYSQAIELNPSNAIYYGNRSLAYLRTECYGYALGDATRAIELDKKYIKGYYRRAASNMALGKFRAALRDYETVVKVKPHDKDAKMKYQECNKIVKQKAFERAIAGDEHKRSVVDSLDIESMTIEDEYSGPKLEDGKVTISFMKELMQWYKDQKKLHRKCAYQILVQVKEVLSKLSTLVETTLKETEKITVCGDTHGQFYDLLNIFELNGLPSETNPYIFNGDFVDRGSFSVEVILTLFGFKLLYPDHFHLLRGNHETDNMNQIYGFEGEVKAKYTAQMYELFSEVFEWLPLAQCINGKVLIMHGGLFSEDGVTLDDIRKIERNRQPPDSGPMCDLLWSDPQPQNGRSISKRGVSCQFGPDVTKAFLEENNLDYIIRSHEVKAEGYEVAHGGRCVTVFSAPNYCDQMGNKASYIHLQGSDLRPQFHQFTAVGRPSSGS
# [3] = target: Serine/threonine-protein phosphatase PP1-alpha catalytic subunit (Homo sapiens, UniProt P62136); experiment: inhibition of protein phosphatase 1 activity – biochemical, fluorescence, dose response (AID 2403);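 also: phosphatase turnover of OMFP into fluorescent 3-O-methylfluorescein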
# Sequence of Serine/threonine-protein phosphatase PP1-alpha catalytic subunit (P62136 whole entry): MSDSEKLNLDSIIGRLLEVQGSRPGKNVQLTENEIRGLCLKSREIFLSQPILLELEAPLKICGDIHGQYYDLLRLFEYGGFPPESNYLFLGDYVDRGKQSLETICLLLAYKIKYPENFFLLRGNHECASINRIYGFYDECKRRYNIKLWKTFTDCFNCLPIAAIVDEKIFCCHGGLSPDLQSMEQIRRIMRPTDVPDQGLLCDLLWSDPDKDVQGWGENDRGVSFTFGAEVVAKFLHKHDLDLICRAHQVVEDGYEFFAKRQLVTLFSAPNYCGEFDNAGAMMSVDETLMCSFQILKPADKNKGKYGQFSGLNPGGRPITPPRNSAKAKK
# [4] = target: T2, Coagulation factor XII (Homo sapiens, UniProt P00748); format: functional;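 also: activated factor XIIa alpha cleaving a fluorogenic AMC peptide substrate; inhibitor potency from loss of enzyme activity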
# T2 sequence (P00748 whole entry): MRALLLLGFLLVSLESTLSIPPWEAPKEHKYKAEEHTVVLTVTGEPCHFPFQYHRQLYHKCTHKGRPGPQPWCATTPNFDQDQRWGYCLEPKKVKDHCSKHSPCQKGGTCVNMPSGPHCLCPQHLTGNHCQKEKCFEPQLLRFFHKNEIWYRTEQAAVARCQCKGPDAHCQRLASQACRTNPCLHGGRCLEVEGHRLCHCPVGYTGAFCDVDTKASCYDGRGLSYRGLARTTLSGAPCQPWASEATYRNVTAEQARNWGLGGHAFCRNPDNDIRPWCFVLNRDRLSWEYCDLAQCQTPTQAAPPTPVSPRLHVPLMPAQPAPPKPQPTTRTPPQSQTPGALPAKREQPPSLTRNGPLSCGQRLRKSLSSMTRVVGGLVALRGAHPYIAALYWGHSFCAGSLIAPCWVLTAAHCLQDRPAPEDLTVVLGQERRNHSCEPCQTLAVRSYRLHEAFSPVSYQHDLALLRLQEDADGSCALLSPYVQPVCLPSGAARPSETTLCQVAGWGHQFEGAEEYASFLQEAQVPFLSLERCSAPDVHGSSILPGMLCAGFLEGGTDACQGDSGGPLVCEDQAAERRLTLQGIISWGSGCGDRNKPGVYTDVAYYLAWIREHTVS
# [5] = test system: Streptococcus sp. 'group A'; experiment: Streptococcus pyogenes SK(-)GAS viability under kanamycin – luminescence, BacTiterGlo, confirmation, counter-screen for streptokinase expression inhibitor project, dose response (AID 1900); format: functional, organism-based
# [6] = target: T3, Streptokinase A (Streptococcus pyogenes serotype M1, UniProt P10520); experiment: viability-normalized secreted streptokinase activity reduction – plasminogen activation absorbance, OD405, dose response (AID 1914); format: functional, Streptococcus pyogenes M1 GAS;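 also: secreted streptokinase activity via plasminogen activation per viability signal from cell pellet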
# T3 sequence (P10520 whole entry): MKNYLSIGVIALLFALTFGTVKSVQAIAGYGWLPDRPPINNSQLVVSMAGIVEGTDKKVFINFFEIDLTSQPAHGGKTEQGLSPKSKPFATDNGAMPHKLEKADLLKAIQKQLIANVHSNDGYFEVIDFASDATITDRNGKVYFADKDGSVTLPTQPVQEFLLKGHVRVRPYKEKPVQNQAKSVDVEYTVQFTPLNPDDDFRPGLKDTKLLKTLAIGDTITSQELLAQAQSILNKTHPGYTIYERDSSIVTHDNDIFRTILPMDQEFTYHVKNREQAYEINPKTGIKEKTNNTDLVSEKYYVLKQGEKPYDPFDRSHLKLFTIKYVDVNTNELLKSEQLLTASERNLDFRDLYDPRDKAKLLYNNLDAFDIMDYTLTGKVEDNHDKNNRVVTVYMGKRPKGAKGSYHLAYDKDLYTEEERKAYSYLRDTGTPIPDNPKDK
# [7] = test system: Streptococcus; experiment: GAS UMAA2166 growth inhibition – luminescence, BacTiterGlo, counter-screen for streptokinase expression inhibitor project, dose response (AID 1915); format: functional, organism-based;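 also: potency for reduction of bacterial viability or growth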
# [8] = target: T4, Trace amine-associated receptor 1 (Homo sapiens, UniProt Q96RJ0); experiment: Fluorescence-based cell-based high throughput dose response assay to identify agonists of the human trace amine associated receptor 1 (TAAR1).; format: functional
# T4 sequence (Q96RJ0 whole entry): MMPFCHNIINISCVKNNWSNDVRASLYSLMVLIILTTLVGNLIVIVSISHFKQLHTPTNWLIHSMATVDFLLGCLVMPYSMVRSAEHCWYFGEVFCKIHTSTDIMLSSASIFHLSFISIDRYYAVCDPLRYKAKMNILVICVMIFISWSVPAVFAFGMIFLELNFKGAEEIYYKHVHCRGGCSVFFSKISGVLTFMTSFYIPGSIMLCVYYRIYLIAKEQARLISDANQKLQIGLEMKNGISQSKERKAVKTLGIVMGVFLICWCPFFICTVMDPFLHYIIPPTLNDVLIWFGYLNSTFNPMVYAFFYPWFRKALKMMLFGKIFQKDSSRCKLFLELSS
# [9] = cells; format: functional, cell-based
# [10] = target: T4, Trace amine-associated receptor 1; experiment: Counterscreen for agonists of the human trace amine associated receptor 1 (hTAAR1): Fluorescence-based cell-based high throughput dose response assay to identify hTAAR1 agonist that also desensitize TAAR1 receptor response.; format: functional
# [11] = A Cell Based Secondary Assay To Explore Cytotoxicity of Compounds that Sensitize Mycobacterium Tuberculosis to Beta-Lactam Antibiotics.; format: functional
# [12] = cells; format: functional, cell-based; remark: listed apart in the source
# [13] = target: T5, Polyadenylate-binding protein 1 (Homo sapiens, UniProt P11940); experiment: MLLE domain peptide-binding blockers, IC50 – biochemical, fluorescence polarization, FITC-PAM2 peptide, dose response (AID 602259); format: functional; conditions: read-out: IC50_Mean
# T5 sequence (P11940 whole entry, the tested form may be a part): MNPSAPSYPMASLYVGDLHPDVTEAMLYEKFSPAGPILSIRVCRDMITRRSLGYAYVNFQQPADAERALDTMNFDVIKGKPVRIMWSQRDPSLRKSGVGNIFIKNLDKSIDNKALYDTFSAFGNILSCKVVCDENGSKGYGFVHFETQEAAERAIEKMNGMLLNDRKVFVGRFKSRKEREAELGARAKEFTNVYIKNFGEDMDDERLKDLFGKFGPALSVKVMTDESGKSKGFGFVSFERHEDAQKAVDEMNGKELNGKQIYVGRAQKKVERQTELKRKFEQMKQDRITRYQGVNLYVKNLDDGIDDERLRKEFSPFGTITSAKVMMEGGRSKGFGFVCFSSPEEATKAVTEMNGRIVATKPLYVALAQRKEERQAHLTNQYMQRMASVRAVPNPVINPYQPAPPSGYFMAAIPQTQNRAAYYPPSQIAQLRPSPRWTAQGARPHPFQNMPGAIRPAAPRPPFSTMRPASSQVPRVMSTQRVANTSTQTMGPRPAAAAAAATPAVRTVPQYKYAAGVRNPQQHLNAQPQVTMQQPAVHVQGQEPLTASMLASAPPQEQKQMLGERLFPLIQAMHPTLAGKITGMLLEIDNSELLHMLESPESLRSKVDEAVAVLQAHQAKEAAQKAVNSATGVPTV
# [14] = target: T5, Polyadenylate-binding protein 1; experiment: MLLE binding blockers, Cy5 peptide tracer – biochemical, fluorescence polarization, Cy5-PAM2 peptide, secondary, miRNA deadenylation inhibitor project, dose response (AID 602260); format: functional; conditions: read-out: IC50_Mean
# [15] = target: G-protein coupled receptor 55 (Homo sapiens, UniProt Q9Y2T6); experiment: inhibition of LPI-stimulated GPR55 beta-arrestin translocation – imaging, U2OS, beta-arrestin-GFP, LPI agonist, primary screen (AID 2013); format: functional;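 also: antagonist potency measured as reduced agonist-driven arrestin aggregation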
# [16] = target: Cytochrome P450 2D6 (Homo sapiens, UniProt P10635);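 also: CYP2D6 member of a cytochrome P450 panel assay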
# Sequence of Cytochrome P450 2D6 (P10635 whole entry): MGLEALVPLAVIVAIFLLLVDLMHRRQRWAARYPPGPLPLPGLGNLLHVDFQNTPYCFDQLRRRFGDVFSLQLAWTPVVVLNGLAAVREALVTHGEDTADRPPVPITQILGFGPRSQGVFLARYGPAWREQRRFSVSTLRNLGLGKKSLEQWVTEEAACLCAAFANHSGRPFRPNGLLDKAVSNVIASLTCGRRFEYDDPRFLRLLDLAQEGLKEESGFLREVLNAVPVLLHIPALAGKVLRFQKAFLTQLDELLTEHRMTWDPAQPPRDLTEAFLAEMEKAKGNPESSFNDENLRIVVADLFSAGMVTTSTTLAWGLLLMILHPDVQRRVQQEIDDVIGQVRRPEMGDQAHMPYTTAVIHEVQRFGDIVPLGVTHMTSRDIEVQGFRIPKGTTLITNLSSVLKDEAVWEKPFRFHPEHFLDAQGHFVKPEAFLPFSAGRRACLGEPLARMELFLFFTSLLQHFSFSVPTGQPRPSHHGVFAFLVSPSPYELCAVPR
# [17] = Luminescence Cell-Based Dose Retest to Confirm Inhibitors of Cancer Stem Cells. [Related pubchem assays (depositor defined):AID2717, AID2721]; format: functional; conditions: Homo sapiens
# [18] = target: Voltage-dependent T-type calcium channel subunit alpha-1H (Homo sapiens, UniProt O95180); format: functional;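 also: channel activity triggered by adding a high calcium stimulation buffer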
# Sequence of Voltage-dependent T-type calcium channel subunit alpha-1H (O95180 whole entry): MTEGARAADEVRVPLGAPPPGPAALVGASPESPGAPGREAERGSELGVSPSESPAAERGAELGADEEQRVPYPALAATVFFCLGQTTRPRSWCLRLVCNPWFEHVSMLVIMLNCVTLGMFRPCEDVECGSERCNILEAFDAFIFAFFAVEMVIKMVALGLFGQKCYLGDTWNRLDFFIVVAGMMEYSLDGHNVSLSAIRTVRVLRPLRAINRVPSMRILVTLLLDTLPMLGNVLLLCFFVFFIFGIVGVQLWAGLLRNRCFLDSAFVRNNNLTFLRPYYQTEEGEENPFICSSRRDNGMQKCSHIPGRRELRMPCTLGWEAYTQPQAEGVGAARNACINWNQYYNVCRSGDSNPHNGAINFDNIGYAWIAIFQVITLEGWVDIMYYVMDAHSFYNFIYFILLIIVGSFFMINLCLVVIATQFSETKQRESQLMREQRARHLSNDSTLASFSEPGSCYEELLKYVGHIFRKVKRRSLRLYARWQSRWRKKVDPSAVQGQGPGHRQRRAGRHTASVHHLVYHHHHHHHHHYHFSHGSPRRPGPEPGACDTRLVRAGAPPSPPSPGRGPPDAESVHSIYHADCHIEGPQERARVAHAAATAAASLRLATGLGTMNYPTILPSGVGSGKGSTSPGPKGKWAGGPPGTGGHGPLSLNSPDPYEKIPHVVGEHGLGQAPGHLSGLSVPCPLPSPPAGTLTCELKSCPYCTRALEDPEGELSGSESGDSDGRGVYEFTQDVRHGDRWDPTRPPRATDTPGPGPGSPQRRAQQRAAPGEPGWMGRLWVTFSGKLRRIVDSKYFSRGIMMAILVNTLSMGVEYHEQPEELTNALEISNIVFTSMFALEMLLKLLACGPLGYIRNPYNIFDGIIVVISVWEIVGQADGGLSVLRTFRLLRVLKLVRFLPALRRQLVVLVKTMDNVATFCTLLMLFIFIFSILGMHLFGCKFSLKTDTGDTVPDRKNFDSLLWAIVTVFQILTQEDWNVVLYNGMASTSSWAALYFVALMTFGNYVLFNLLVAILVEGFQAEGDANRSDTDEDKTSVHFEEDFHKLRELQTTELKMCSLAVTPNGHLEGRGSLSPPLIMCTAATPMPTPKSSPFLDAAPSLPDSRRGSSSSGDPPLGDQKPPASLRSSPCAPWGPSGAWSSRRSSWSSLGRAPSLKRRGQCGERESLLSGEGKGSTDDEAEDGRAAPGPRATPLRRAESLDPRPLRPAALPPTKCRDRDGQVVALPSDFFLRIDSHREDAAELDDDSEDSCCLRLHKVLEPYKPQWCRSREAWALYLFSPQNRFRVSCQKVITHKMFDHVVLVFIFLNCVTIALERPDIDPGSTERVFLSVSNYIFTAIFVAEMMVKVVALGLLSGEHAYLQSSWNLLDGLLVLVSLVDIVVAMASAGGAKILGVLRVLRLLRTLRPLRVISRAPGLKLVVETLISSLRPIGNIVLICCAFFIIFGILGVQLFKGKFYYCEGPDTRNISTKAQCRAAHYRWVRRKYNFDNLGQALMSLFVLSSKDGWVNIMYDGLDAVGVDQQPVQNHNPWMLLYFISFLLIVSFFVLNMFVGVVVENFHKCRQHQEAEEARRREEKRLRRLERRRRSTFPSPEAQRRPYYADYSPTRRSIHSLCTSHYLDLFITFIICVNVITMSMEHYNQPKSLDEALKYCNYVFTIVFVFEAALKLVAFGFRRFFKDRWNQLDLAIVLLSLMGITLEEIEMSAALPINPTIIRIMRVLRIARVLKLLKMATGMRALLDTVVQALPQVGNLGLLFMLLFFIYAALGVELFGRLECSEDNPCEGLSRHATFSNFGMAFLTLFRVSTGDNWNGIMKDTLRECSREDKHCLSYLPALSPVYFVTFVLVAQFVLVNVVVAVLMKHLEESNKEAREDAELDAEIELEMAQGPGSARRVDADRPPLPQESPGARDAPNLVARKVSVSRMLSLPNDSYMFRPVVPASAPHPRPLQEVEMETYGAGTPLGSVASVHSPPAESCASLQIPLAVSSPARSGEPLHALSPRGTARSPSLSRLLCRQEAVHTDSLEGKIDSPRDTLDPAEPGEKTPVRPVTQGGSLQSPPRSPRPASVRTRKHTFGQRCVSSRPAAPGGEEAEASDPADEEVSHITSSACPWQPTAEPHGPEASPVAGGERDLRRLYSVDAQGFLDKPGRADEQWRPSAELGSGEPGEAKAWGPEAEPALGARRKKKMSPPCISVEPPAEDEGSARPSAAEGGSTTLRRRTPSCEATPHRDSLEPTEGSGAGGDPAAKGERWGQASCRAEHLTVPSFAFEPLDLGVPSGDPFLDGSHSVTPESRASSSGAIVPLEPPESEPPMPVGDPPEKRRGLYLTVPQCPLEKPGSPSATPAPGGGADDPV
# [19] = THP-1 cell cytotoxicity, dose response, cytotoxicity control for non-replicating M. tuberculosis project (AID 489025); format: functional
# [20] = Vero E6 cell cytotoxicity, dose response, cytotoxicity control for non-replicating M. tuberculosis project, secondary assay (AID 492998); format: functional, VeroE6; conditions: Vero C1008
# [21] = cells; format: functional
# [22] = target: T6, Protein skinhead-1 (Caenorhabditis elegans, UniProt P34707); format: functional
# T6 sequence (P34707 whole entry): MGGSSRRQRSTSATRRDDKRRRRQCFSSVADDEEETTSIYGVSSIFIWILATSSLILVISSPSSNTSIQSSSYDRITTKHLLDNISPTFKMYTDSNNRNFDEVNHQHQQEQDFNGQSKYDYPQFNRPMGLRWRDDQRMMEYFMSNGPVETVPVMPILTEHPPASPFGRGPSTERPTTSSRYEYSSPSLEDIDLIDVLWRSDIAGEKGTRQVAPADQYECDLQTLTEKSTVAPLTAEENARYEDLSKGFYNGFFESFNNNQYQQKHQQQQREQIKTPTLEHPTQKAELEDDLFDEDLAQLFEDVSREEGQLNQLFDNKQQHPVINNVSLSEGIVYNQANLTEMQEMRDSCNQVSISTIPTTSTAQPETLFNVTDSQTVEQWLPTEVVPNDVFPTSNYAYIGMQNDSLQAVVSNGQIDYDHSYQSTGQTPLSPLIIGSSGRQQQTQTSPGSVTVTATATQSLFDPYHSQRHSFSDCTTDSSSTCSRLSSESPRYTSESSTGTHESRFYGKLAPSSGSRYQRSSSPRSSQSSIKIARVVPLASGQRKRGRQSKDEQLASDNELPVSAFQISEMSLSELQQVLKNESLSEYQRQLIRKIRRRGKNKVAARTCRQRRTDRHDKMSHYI
# [23] = target: Heat shock 70 kDa protein 1A (Homo sapiens, UniProt P0DMV8); experiment: inhibition of Hsp70 binding activity – biochemical, fluorescence polarization, SAR follow-up (AID 1072)
# Sequence of Heat shock 70 kDa protein 1A (P0DMV8 whole entry): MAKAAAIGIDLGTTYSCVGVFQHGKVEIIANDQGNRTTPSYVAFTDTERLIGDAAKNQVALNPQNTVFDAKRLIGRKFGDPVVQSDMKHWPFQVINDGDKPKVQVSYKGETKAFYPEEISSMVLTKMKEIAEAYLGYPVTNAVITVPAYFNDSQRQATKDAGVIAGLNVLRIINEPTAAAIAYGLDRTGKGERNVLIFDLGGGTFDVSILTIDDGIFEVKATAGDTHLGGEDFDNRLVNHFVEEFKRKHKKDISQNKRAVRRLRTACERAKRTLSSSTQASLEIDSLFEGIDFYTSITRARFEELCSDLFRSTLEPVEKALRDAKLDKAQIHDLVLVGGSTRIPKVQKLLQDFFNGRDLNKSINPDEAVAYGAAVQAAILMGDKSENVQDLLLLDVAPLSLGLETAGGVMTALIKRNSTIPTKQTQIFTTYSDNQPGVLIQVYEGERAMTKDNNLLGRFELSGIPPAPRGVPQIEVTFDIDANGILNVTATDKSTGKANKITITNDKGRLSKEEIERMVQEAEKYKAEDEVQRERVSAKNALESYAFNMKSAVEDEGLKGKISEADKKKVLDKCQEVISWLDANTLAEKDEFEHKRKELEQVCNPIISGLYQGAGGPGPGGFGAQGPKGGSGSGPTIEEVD
# [24] = target: Heat shock cognate 71 kDa protein (Homo sapiens, UniProt P11142); experiment: In Vitro Hsc70 Dose Response Fluorescence Polarization Assay. [Related pubchem assays: 1072 ]
# Sequence of Heat shock cognate 71 kDa protein (P11142 whole entry): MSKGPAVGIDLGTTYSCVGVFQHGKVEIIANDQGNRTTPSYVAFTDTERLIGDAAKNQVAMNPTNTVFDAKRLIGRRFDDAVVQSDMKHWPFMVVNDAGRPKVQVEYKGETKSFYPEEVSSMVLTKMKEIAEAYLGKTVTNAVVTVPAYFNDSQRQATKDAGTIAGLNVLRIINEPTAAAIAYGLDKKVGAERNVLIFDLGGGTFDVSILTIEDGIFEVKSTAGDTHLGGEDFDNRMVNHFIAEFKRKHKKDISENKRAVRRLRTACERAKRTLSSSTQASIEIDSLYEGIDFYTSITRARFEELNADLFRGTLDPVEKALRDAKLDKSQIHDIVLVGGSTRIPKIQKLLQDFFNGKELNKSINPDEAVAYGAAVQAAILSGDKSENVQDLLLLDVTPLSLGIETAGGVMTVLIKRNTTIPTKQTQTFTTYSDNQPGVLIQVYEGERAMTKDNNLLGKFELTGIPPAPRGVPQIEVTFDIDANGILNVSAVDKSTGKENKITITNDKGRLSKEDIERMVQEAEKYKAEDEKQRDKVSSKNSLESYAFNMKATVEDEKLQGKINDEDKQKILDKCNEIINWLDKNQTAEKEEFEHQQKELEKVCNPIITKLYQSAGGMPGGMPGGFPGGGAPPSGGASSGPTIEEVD
# [25] = NIH3T3 cell viability loss – ATP luminescence, mouse fibroblasts, counter-screen, dose response (AID 2010); format: functional, cell-based;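 also: cells exposed to compound for about 90 hours before reading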
# [26] = Trypanosoma cruzi growth suppression in host cells – NIH3T3 host cells, beta-gal luminescence, confirmation (AID 2044); format: functional, cell-based;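 also: intracellular parasites grown in NIH/3T3 mouse fibroblasts as host cells; luminescent beta-galactosidase reporter signal from transgenic T. cruzi replicating inside host cells; inhibitors lower the luminescence signal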
smiles,measurement,setting,value
COc1ccc(C(=O)/C=C/c2cn(CC(O)CN3CCN(C)CC3)c3ccccc23)cc1OC (stereo unspecified),EC50,[1],12.3 µM (inactive)
Cn1nccc1NC(=O)Nc1cccc(Cl)c1Cl,EC50,[1],> 71.4 µM (inactive)
CC1CC(NC(=O)C2C3CCC(O3)C2C(=O)O)CC(C)(C)C1 (stereo unspecified),IC50,[2],2.78 µM (active)
same,IC50,[3],2.85 µM (active)
same,IC50,[4],> 50 µM (inactive)
COc1ccccc1Sc1nc(-c2ccccn2)ncc1OC,IC50,[2],66.8 µM (not active)
same,IC50,[3],7.52 µM (active)
same,EC50,[5],27.1 µM (active)
same,EC50,[6],> 150 µM (not active)
same,EC50,[7],> 150 µM (not active)
CCn1cc(C(=O)O)c(=O)c2cc(F)c(N/N=C/c3ccccc3)cc21,EC50,[8],19.7 µM (inactive)
same,EC50,[9],> 29.9 µM (inactive)
same,IC50,[10],1.68 µM (active)
same,CC50,[11],34.1 µM (active)
same,IC50,[12],> 29.9 µM (inactive)
N#C/C(=C\c1ccccc1[N+](=O)[O-])C(=O)NCc1ccccc1,IC50,[13],> 66 µM (inactive)
same,IC50,[14],> 66 µM (inactive)
same,IC50,[15],3.09 µM (active)
COc1ccc(CN(CCC#N)C(=S)NC(=O)c2ccccc2)cc1,CC50,[11],39 µM (active)
same,AC50,[16],25.1 µM (inconclusive)
CCC(c1nnnn1Cc1ccco1)N1CCN(c2cc(Cl)ccc2C)CC1 (stereo unspecified),AC50,[17],3.44 µM (active)
same,EC50,[18],4.19 µM (active)
O=C1Nc2ccccc2N2CCCC12 (stereo unspecified),IC50,[2],> 2.48 µM (active)
same,IC50,[3],> 67 µM (not active)
COc1cccc(-c2nnc(NC(=O)c3cccc(F)c3)o2)c1,CC50,[19],13 µM (active)
same,CC50,[20],9 µM (active)
same,IC50,[21],3.03 µM (active)
COC(=O)C1=C(C)NC(=O)/C1=C\N(C)C,IC50,[13],> 66 µM (inactive)
same,IC50,[14],> 66 µM (inactive)
same,EC50,[1],> 71.5 µM (inactive)
same,IC50,[22],> 100 µM (inactive)
CC1C2C=CC1C(c1c3ccc(=O)c(O)c-3oc3c(O)c(O)ccc13)C2C(=O)O (stereo unspecified),IC50,[23],0.634 µM (active)
same,IC50,[24],5.58 µM (active)
O=C(Nc1ccccc1-c1nnc(SCc2ccc(Cl)cc2)o1)c1ccccc1,EC50,[25],> 60 µM (not active)
same,EC50,[26],2.22 µM (active)
same,EC50,[18],6.46 µM (active)
